Active and inactive are the calls of the source. No cut-off for these calls is given here.
Test system: Aspergillus fumigatus
Experiment: Antifungal activity against Aspergillus fumigatus
Assay type: functional, organism-based

| SMILES | Activity |
| --- | --- |
| CC[C@@H](C)[C@H]1C=C[C@H]2[C@H](O)[C@@H](O)C[C@@H](C)[C@@H]2[C@@]1(C)C(=O)CCO | inactive |
| CC[C@@H](C)C1=CC(=O)[C@H]2[C@H](O)[C@H](O)C[C@@H](C)[C@@H]2[C@@]1(C)C(=O)CCO | inactive |
| CC[C@@H](C)[C@H]1C=C[C@H]2[C@H](O)[C@H](O)C[C@@H](C)[C@@H]2[C@@]1(C)C(=O)CCO | inactive |
